From patent US20100255070A1, “COMPOSITIONS AND METHODS FOR PREVENTING, MINIMIZING AND HEALING SKIN IRRITATION AND TRAUMA” (PRELIEF INC., priority 2007, published 2010)

Assay: Water solubility of the components of the preferred aqueous composition
Type: physicochemical
Settings: component of the preferred aqueous composition
Description: The film-forming component is designed to be insoluble so that it will form a film on the skin.

SMILES: OCC(O)CO [Glycerin]
- Water Solubility: S
